The source of these data is US7258861B2, “TNF-derived peptides for use in treating oedema” (Innogenetics N.V., priority 2001, dated 2007).

Data set [1] relates to lung microvascular endothelial cells. Kind of data set: Whole-cell patch clamp, membrane conductance in lung microvascular endothelial cells. The format is cell-based, mouse. From the text:
(§1) Animals, cells and reagents. Male CBA/J or C57BL/6 mice, as well as male TNFR ½^0/0 C57BL/6 mice deficient in TNF receptors (Bruce et al., 1996) provided by H. Bluethmann, F. Hoffmann-La Roche, Basel, Switzerland, were used at the age of 8–10 weeks. Their care was in accordance with institutional guidelines. Lung microvascular endothelial cells were isolated from CBA/J mice and characterized as described (Jackson et al., 1990) using magnetic beads (Dynabeads M-450, Dynal, Oslo, Norway), covalently bound to a purified rat-anti-mouse PECAM-1 monoclonal antibody (donated by B. Imhof, University of Geneva). Microvascular lung endothelial cells were resuspended in DMEM containing 2 mM L-glutamine, 100 U/ml penicillin, […], 20% FCS, 40 U/ml heparin and […] endothelial cell growth supplement (Brunschwig Chemie, Basel, Switzerland). For patch clamp experiments, cells were plated onto 35×10 mm easy grip Petri dishes (Beckton Dickinson, Plymouth, UK), pre-coated with 0.2% gelatin (Sigma, Buchs, Switzerland). Resident peritoneal macrophages, isolated in ice cold RPMI containing antibiotics and 10 U/ml Heparin, were left to adhere onto 35×10 mm easy grip Petri dishes for 4 h, after which the non-adherent cells were removed. Cells were grown in RPMI 1640 containing 2 mM L-glutamine, 100 U/ml penicillin, 10 μpg/ml streptomycin and 10% fetal bovine serum (all from Gibco). For patch clamp, the macrophages ware used 24 h after isolation.
Electrophysiology. Cells were pretreated for 30 min with TNF, mutTNF and tip peptides at 37° C. in a buffer consisting of 145 mM NaCl, 3 mM KCl, 2mM CaCl2, 2mM MgCl2, 10 mM D-glucose, and 10mM Hepes, and pH-adjusted with NaOH to required value. Cells were then washed with the same buffer pH-adjusted at 7.3, and experiments were performed using the tight-seal, whole-cell recording technique. Currents were recorded with an Axopatch-200A amplifier (Axon Instrument Inc, Foster City, Calif., USA), low pass-filtered at 1 kHz. Digitalization and off-line analysis was performed using the WCP program (J. Dempster, Strathclyde Electrophysiology Software, Glasgow, UK). Patch pipettes were pulled from borosilicate glass and fire polished to have an open resistance of 3–5 MW with an internal solution containing […], 2 mM MgCl2, 10mM EGTA, 20 mM TEA-Cl, 10 mM D-glucose 10 mM Hepes, pH-adjusted to 7.3 with CsOH. Series resistances were kept under 10 MW. Capacitance and series resistance compensation were applied and set to 70%. All experiments were done at room temperature. Results are given as mean ±SEM, unless otherwise indicated. Analysis of variance was performed on currents and membrane conductance values, with post-hoc Dunn-Bonferroni test for significance of differences observed between two groups. A P value of 0.05 was considered significant.

The subject of a further data set is isolated rat lungs. Kind of data set: Isolated blood perfused flooded rat lung (weight, lung mechanics, PV curves, histology).
Data set [2] relates to resident peritoneal macrophages from mice deficient in both TNF receptor-1 and -2. Kind of data set: Whole-cell patch clamp in resident peritoneal macrophages of TNFR1/2-deficient mice. In kind it is cell-based, mouse. As to conditions: cells lacking TNF receptors.
Description: as §1, with “Cells were grown in RPMI 1640 containing 2 mM L-glutamine, 100 U/ml penicillin, 10 μpg/ml streptomycin and 10% fetal bovine serum (all from Gibco). For patch clamp, the macrophages ware used 24 h after isolation.” left out
Electrophysiology. […] Currents were recorded with an Axopatch-200A amplifier (Axon Instrument Inc, Foster City, Calif., USA), low pass-filtered at 1 kHz. […]

A further data set deals with C57/BL6 wild type mice. Put plainly: In situ mouse model of alveolar fluid clearance, wild type mice. In kind it is in vivo. Particulars: over 15 min, compared to controls; 0.5 μg/mouse instilled. As for the experimental part: In situ mouse model. Mice were killed by an overdose of pentobarbital sodium (200 mg/kg i.p.). A tracheotomy was done with a 20-gauge trimmed angiocath plastic needle (Becton Dickinson, Sandy, Utah, USA). The lungs were inflated with 7 cm H2O continuous positive airway pressure (CPAP) with 100% oxygen throughout the experiments. Body temperature was maintained at 37–38° C. by an infra-red lamp placed 30 cm above the body (Fisher, Santa Clara, Calif., USA). The lamp was cycled on and off to maintain the core temperature. A temperature probe (Yellow Springs Instrument, Yellow Springs, Ohio, USA) was inserted via a 0.5 cm incision into the abdominal cavity to monitor the core temperature throughout the experiment. These methods have been reported in Matthay et al., 1996 and Ma et al., 2000. […] We added 0.1 μCi of ^131I-labelled albumin (Merck-Frost, Montreal, PQ, Canada) to the instillate as a labeled alveolar protein tracer. • Group 1: Basal alveolar fluid clearance in the wild type mice (n=3) and TNF-R1/TNF-R2 double knock out mice (n=3). • Group 2: Effect of wild type mTNF (0.5 μg/mouse) stimulated alveolar fluid clearance was measured in wild type mice (n=5) and TNF-R1/TNF-R2 double knock out mice (n=5) (Bruce et al., 1996).

For the next data set, the system named is normal rats. Particulars: instillation in normal rats, over 1 hour; cited from earlier work.

Description for isolated rat lungs: Rats. For the ex vivo experiments, 31 Sprague-Dawley rats (300 to 350 g) were tracheotomized and mechanically ventilated (40% oxygen in air) under isoflurane anesthesia. The experimental protocol was reviewed and approved by the Ethics Committee for Animal Research and by the Veterinary Office of our institution. The femoral vessels were cannulated for blood sampling, fluid replacement, and continuous arterial blood pressure monitoring. Following anticoagulation (1.5 IU/g i.v. heparin), 20 ml of blood were withdrawn and replaced by an equal volume of dextran-40 (Macrodex 10% in normosaline) to serve as priming volume for the isolated perfusion circuit. The heart-lung block was prepared as described by Ma et al., 2000, weighed and assigned to one of four groups. […] The lungs were suspended, mechanically ventilated, and perfused at constant pressure with autologous blood as described by Ma et al., 2000.
An inspiratory and expiratory quasi-static pressure-volume (PV) curve was performed at the end of the 2-hour reperfusion period by inflating and then deflating the lungs at a constant rate (0.3 ml/sec) using an automated infusion pump. A sigh was applied in all groups every 15 minutes to minimize atelectasis formation. The blood pH was maintained between 7.3 and 7.5 and, if necessary, corrected with sodium bicarbonate 8.4% or a change of the inspired CO2 as required by the blood gas analysis. Every 30 minutes, a blood sample was collected for blood gas analysis as well as for hematocrit and electrolyte concentration.
Inclusion criteria. Immediately following the start of reperfusion, the preparation had to fulfill three technical inclusion criteria: • 1) left atrial pressure (LAP) 5-10 mmHg; • 2) peak airway pressure (AWP) <15 cmH2O; and • 3) pulmonary blood flow (PBF) >10 ml/min. […] The included lungs were then flooded with gentle intratracheal instillation of 2 ml normal saline and the recorded variables measured for 2 subsequent hours.
Histological analysis. Random lung samples were fixed for light and electron microscopy and analyzed by pathologists blinded to the lung's protocol group assignment.

For the substance “TNF: E.coli-derived recombinant murine TNF”, the “induced increase in conductance in presence of amiloride” value in data set [1] (100 μM amiloride added during pretreatment at pH 6.0) is on record as “abrogated”. For the same substance, the “whole cell current / membrane conductance” value in data set [1] (30 min preincubation at acidic pH (pH 6), TNF, mutTNF 100 ng/ml, peptides 100 μg/ml) is listed as “significant increase in outward and, to a lesser extent, inward current”; in data set [1] (preincubation at pH 7.3 (neutral pH)), “did not occur”. Moreover, the “reversal potential of induced conductance” value in data set [1] (endothelial cells) is “about 0 mV”. In addition, the “lung weight change over time after alveolar flooding” value with isolated rat lungs (2 hours reperfusion after 2 ml saline, TNF 5 μg, peptides 1 mg) is given as “no significant change in weight over time”. Further, the “lung mechanics (peak AWP, Cdyn, Raw) after alveolar flooding” value with isolated rat lungs (2 hours reperfusion, TNF 5 μg, peptides 1 mg) is “no difference from the saline-treated group”. Also, the “lower inflection point of inspiratory quasi-static PV curve” value with isolated rat lungs (end of 2-hour reperfusion, TNF 5 μg, peptide 1 mg) is 20.0±0.8 cmH2O. Moreover, the “leukocyte infiltration (lung histology)” value in the data set with isolated rat lungs (hematoxylin-stained slices, compared to controls) was “significantly increased leukocyte infiltration”. Further, the “endothelial flaps and epithelial blebs (electron microscopy)” value in the data set with isolated rat lungs (pretreated lungs after flooding and 2 hours reperfusion) is reported as “prominent numerous endothelial flaps”. In addition, the whole cell current result in data set [2] was “induced a voltage-dependent current”. In the data set with C57/BL6 wild type mice, the “increase in alveolar fluid clearance (AFC)” value is 24%. For the same substance, the “increase of alveolar liquid clearance” value with normal rats is recorded as 43%.
